Structures can show the parent of a compound that is named as a salt. Where two headings read alike, the source gives them in different places.
Legend:
MDD patients = conditions: cited from earlier work; for placebo subtracted difference in LSM change from baseline on MADRS score: adjunctive to antidepressants; for placebo subtracted difference in (LSM) change from baseline MADRS total score: pivotal clinical studies, package inserts
[1] = 28-day (4-week GLP) toxicology study in dogs, toxicokinetic exposure; conditions: dog, in vivo, 0.5 mg/kg; internal 4-week GLP toxicology study; read-out: Dog Cmax at 0.5 mg/kg
Description: The exposure limits will be applied on mean values within a cohort.

[2] = female, rat, in vivo, 40 mg/kg
[3] = Clinical PD of psilocin after psilocybin (VAS-Any drug effect, MEQ30, 5D-ASC versus psilocin Cmax); type: in vivo, human
Description: To evaluate potential psychedelic effects at various doses of psilocin-d10, data were summarized/modeled from published literature for psilocin after psilocybin administration.
First, the VAS—Any drug effect score was modeled based on data from Holze et al. 2022 using a linear effect relationship to determine psilocin plasma concentrations in which a VAS—Any drug effect score of 20, 40, 60, and 80 mm was reached. This relationship is presented graphically in FIG. 4, based on the extraction of mean PK and PD data from the figures in Holze et al. 2022. Here, a linear concentration-effect relationship was identified with no evidence of hysteresis. As is evident from this modeled linear concentration-effect relationship according to Holze et al. 2022 (y=0.17+3.9x), a psilocin plasma concentration of about 15.34 ng/ml is the predicted amount required to achieve VAS-Any drug effect scores above 60 mm, a psilocin plasma concentration of about 17.9 ng/ml is the predicted amount required to achieve VAS-Any drug effect scores above 70 mm, and a psilocin plasma concentration of about 20.47 ng/ml is the predicted amount required to achieve a VAS-Any drug effect score of 80 mm.
This modeled relationship between psilocin plasma concentration and VAS-Any drug effect score is also in agreement with reported literature studies relating plasma psilocin concentrations (μg/L) to neocortical serotonin 5-HT2A receptor occupancy % and subjective intensity of the psychedelic experience (see Madsen MK, Fisher PM, Burmester D, et al (2019). Psychedelic effects of psilocybin correlate with serotonin 2A receptor occupancy and plasma psilocin levels. Neuropsychopharmacology, 44:1328-34), albeit the Madsen et al. study uses a VAS scoring system related specifically to psychedelic effects. The psilocin concentrations needed to reach the plateau in receptor occupancy and the required VAS scores (psychedelic effects) can be seen graphically in FIG. 5 and FIGS. 6A-6B, which are reproduced from Madsen et al. 2019 (FIGS. 3 and 4, respectively, in Madsen et al. 2019). […]

[4] = psilocin after psilocybin, Studerus et al. 2011; cited from earlier work
[5] = linear model of Holze et al. 2022 data

Compound: CN(C)CCc1c[nH]c2ccccc12 [N,N-dimethyltryptamine (DMT), N,N-dimethyltryptamine]
- MADRS CFB reduction over placebo (MDD patients; intravenous, two-weeks postdose, Small Pharma press release): −7.4

Compound: CN(C)C(=O)N[C@H]1CC[C@H](CCN2CCN(c3cccc(Cl)c3Cl)CC2)CC1 [cariprazine]
- placebo subtracted difference in LSM change from baseline on MADRS score (MDD patients; 1.5 mg/day fixed dose, 95% CI: −4.2, −0.9): −2.5
- placebo subtracted difference in LSM change from baseline on MADRS score (MDD patients; flexible doses of 2-4.5 mg/day, 95% CI: −3.7, −0.6): −2.2
- placebo subtracted difference in (LSM) change from baseline MADRS total score (MDD patients): −2.2 to −2.5

Compound: CCN(CC)C(=O)[C@@]1(c2ccccc2)C[C@H]1CN [levomilnacipram]
- placebo subtracted difference in (LSM) change from baseline MADRS total score (MDD patients): −3.1 to −4.9

Compound: CN(C)CCc1c[nH]c2cccc(O)c12 [psilocin, 4-hydroxy-N,N-dimethyltryptamine]
- Cmax [1]: 51.7 ng/mL
- Cmax [2]: 343 ng/mL
- psilocin plasma concentration predicted for VAS-Any drug effect scores above 70 mm ([3]; linear concentration-effect model): about 17.9 ng/ml
- psilocin Cmax / plasma concentration for VAS - Any drug effect: 20 [3, 5]: 5.08 ng/mL
- psilocin Cmax / plasma concentration for VAS - Any drug effect: 40 [3, 5]: 10.2 ng/mL
- psilocin Cmax with no change in list of complaints + 5D-ASC [4]: 1.83 ng/mL

Compound: N#Cc1ccc2[nH]cc(CCCCN3CCN(c4ccc5oc(C(N)=O)cc5c4)CC3)c2c1 [vilazodone hydrochloride]
- placebo subtracted difference in (LSM) change from baseline MADRS total score (MDD patients): −2.5 to −5.1

Compound: Cc1ccc(Sc2ccccc2N2CCNCC2)c(C)c1 [vortioxetine]
- difference in mean change from baseline of MADRS scores between placebo and drug (MDD patients; 20 mg, meta-analysis of 11 placebo-controlled trials): 4.57
- placebo subtracted difference in (LSM) change from baseline MADRS total score (MDD patients): −2.8 to −5.9

— patent US20240293367A1, “METHODS OF TREATING DISORDERS WITH A […]” (Cybin IRL Limited, priority 2023, published 2024)
